For 24 compounds, IC50 results are on record in patent publication US10479795B2 (Incyte Corporation, priority 2016, dated 2019).

The structures appear in SMILES notation. Counter-ions that a name gives are not always drawn. Like-named read-outs stand apart in the source and are kept apart here.

A word on the IC50: it is the concentration at which inhibition is half-maximal.

Experiment [1] has as its target PI3Kγ (p110γ) Recombinant Human Protein (Homo sapiens (Human), UniProt P48736). In words: PI3K-γ Scintillation Proximity Assay. The experiment is classed as biochemical. The method in brief: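 Radiometric SPA readout: […] bound to WGA beads after overnight shaking, IC50 derived from % activity of DMSO control. Reaction used human p110γ, 2 μM ATP, 20 μM PIP2, pH 6.7 MOPS buffer with MgCl2, DTT, CHAPS, 2% DMSO, room temperature.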
Background: Scintillation proximity formats need no separation of bound from free tracer.

The target in experiment [2] is PI3Kδ (p110δ/p85α) Recombinant Human Protein (Homo sapiens (Human), UniProt O00329). Put plainly: PI3Kδ Scintillation Proximity Assay. The format is biochemical. The text has this: Example C. PI3Kδ Scintillation Proximity Assay
[γ-^33P]ATP (10 mCi/mL) and Wheat Germ Agglutinin (WGA) YSi SPA Scintillation Beads was purchased from Perkin-Elmer (Waltham, Mass.). Lipid kinase substrate, D-myo-Phosphatidylinositol 4,5-bisphosphate (PtdIns(4,5)P2)D (+)-sn-1,2-di-O-octanoylglyceryl, 3-O-phospho linked (PIP2), CAS 204858-53-7, was purchased from Echelon Biosciences (Salt Lake City, Utah). PI3Kδ (p110δ/p85α) Recombinant Human Protein was purchased from Eurofins (St Charles, Mo.). ATP, MgCl2, DTT, EDTA, MOPS and CHAPS were purchased from Sigma-Aldrich (St. Louis, Mo.).
The kinase reaction was conducted in polystyrene 384-well Greiner Bio-one white plate from Thermo Fisher Scientific in a final volume of 25 μL. Inhibitors were first diluted serially in DMSO and added to the plate wells before the addition of other reaction components. The final concentration of DMSO in the assay was 2%. The PI3Kδ assay was carried out at room temperature in 20 mM MOPS, pH 6.7, 10 mM MgCl2, 5 mM DTT and CHAPS 0.03%. Reactions were initiated by the addition of ATP, the final reaction mixture consisted of 20 μM PIP2, 2 μM ATP, 0.5 μCi [γ-^33P] ATP, 3.4 nM PI3Kδ. Reactions were incubated for 120 min and terminated by the addition of 40 μL SPA beads suspended in quench buffer: 163 mM potassium phosphate pH 7.8, 20% glycerol, 25 mM EDTA. The final concentration of SPA beads is 1.0 mg/mL. After the plate sealing, plates were shaken overnight at room temperature and centrifuged at 1500 rpm for 10 min, the radioactivity of the product was determined by scintillation counting on Topcount (Perkin-Elmer). IC50 determination was performed by fitting the curve of percent of the solvent control activity versus the log of the inhibitor concentration using the GraphPad Prism 6.0 software.

Sequence of PI3Kδ (p110δ/p85α) Recombinant Human Protein (O00329 whole entry): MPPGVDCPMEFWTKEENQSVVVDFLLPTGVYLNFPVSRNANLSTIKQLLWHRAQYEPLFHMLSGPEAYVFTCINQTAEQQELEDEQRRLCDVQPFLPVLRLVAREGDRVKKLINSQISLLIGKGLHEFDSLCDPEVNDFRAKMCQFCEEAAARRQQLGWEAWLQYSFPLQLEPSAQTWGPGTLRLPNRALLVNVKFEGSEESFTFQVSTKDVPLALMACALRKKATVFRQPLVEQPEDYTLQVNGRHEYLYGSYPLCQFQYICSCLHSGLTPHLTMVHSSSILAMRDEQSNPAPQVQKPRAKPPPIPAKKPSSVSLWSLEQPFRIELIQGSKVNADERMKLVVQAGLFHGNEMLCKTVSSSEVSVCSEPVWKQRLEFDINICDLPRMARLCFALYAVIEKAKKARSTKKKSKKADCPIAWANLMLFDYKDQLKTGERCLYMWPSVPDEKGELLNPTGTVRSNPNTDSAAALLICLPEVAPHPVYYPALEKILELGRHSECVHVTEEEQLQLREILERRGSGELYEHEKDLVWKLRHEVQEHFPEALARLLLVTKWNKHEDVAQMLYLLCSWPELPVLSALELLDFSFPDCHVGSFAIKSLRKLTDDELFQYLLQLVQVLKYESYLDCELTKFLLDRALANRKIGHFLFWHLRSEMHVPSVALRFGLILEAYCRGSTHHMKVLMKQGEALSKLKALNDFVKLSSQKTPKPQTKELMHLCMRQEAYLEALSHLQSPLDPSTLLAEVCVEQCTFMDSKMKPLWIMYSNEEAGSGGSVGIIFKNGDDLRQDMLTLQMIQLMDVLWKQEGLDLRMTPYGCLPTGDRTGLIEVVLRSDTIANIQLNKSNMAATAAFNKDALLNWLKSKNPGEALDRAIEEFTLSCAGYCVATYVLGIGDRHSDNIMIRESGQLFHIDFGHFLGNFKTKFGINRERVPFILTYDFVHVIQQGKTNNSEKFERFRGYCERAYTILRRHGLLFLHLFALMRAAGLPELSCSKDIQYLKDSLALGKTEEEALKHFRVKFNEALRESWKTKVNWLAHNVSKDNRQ
Sequence of PI3Kδ (p110δ/p85α) Recombinant Human Protein (P27986 whole entry partner): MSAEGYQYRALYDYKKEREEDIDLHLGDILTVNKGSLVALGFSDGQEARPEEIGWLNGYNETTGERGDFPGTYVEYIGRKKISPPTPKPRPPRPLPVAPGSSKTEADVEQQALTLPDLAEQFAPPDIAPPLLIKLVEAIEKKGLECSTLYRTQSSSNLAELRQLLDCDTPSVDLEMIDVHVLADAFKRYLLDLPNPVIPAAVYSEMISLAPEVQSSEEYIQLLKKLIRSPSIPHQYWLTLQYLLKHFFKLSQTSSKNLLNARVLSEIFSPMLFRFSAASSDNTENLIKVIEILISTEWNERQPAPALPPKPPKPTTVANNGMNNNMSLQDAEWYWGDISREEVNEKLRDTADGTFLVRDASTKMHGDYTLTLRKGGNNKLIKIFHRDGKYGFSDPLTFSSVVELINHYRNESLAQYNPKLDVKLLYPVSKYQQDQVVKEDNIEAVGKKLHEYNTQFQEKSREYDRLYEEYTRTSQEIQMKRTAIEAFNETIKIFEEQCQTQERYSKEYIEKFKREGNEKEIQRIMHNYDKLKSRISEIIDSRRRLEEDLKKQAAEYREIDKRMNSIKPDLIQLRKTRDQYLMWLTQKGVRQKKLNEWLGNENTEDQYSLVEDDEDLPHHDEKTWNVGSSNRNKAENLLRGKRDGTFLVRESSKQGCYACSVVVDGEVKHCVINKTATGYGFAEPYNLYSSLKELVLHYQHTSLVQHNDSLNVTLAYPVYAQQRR
Sequence of PI3Kγ (p110γ) Recombinant Human Protein (P48736 whole entry): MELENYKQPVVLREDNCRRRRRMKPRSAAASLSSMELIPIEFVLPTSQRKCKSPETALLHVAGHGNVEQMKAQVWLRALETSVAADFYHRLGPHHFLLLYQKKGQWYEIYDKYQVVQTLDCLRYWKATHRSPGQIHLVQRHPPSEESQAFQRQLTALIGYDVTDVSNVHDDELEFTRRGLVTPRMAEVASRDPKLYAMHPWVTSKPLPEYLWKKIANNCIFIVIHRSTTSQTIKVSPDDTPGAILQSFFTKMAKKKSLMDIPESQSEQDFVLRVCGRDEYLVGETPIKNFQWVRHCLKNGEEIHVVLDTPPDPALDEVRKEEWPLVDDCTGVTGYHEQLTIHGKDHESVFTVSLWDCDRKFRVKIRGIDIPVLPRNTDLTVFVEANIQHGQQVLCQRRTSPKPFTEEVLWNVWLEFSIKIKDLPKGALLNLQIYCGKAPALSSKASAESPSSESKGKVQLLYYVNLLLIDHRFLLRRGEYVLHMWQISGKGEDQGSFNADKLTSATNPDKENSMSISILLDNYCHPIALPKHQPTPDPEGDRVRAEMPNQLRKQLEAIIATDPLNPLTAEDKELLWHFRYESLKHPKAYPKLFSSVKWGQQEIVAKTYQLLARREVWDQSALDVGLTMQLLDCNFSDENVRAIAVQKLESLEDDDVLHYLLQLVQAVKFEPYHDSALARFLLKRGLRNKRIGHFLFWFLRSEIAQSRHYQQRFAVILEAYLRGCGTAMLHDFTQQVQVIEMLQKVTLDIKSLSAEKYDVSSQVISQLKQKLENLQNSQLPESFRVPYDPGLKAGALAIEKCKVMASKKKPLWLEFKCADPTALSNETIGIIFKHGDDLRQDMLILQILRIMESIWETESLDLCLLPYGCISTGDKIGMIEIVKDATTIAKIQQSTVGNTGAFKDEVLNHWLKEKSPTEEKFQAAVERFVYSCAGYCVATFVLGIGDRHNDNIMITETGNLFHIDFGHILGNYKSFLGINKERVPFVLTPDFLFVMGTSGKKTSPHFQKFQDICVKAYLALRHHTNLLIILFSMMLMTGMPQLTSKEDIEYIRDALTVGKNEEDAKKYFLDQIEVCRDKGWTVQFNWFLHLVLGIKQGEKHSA

Turning to `Cc1ccc(S(=O)(=O)N2CCCCC23CC3)cc1-c1cnc2c(N)ncnn12` [Example 149, 7-(5-((4-azaspiro[2.5]octan-4-yl)sulfonyl)-2-methylphenyl)imidazo[2,1-f][1,2,4]triazin-4-amine], the half-maximal inhibitory concentration (IC50) in experiment [1] (read-out: PI3Kγ IC50) is under 100 nM; in experiment [2], 100 to 500 nM.
The like results for `COC1CCCN(S(=O)(=O)c2ccc(C)c(-c3cnc4c(N)nc(C(F)(F)F)cn34)c2)C1` (stereo not drawn) [Example 313, 3-(5-((3-Methoxypiperidin-1-yl)sulfonyl)-2-methylphenyl)-6-(trifluoromethyl)imidazo[1,2-a]pyrazin-8-amine] were, in that order, under 100 nM and 100 to 500 nM.
Consider `Cc1ccc(S(=O)(=O)N2CC3CC3(C#N)C2)cc1-c1cnc2c(N)nc(C(F)(F)F)cn12` (stereo not drawn) [Example 302, 3-((3-(8-amino-6-(trifluoromethyl)imidazo[1,2-a]pyrazin-3-yl)-4-methylphenyl)sulfonyl)-3-azabicyclo[3.1.0]hexane-1-carbonitrile], for which the 50% inhibitory concentration (IC50) in experiment [1] (read-out: PI3Kγ IC50) was under 100 nM; in experiment [2], 500 to 2000 nM.
For `Cc1ccc(S(=O)(=O)N(C)CC2(CO)CCC2)cc1-c1cnc2c(N)ncnn12` [Example 178, 3-(4-aminoimidazo[2,1-f][1,2,4]triazin-7-yl)-N-((1-(hydroxymethyl)cyclobutyl)methyl)-N,4-dimethylbenzenesulfonamide], in that order: under 100 nM and 500 to 2000 nM.
For `COCC1(N(C)S(=O)(=O)c2ccc(C)c(-c3cnc4c(N)ncnn34)c2)CC1` [Example 177, 3-(4-aminoimidazo[2,1-f][1,2,4]triazin-7-yl)-N-(1-(methoxymethyl)cyclopropyl)-N,4-dimethylbenzenesulfonamide], in that order: under 100 nM and 500 to 2000 nM.
The like results for `Cc1ccc(S(=O)(=O)N2C3CCC2CC(N2CCOCC2)C3)cc1-c1cnc2c(N)ncnn12` (stereo not drawn) [Example 169, 7-(2-methyl-5-((3-morpholino-8-azabicyclo[3.2.1]octan-8-yl)sulfonyl)phenyl)imidazo[2,1-f][1,2,4]triazin-4-amine] were, in that order, 100 to 500 nM and over 2000 nM.
As to `Cc1cnccc1-c1cn2c(-c3cc(S(C)(=O)=O)ccc3C)cnc2c(N)n1` [Example 473, 3-(2-Methyl-5-(methylsulfonyl)phenyl)-6-(3-methylpyridin-4-yl)imidazo[1,2-a]pyrazin-8-amine trifluoroacetate], the half-maximal inhibitory concentration (IC50) in experiment [1] (read-out: PI3Kγ IC50) is under 100 nM; in experiment [2] it was 500 to 2000 nM.
For `Cc1cn2c(-c3ccc(F)c(S(=O)(=O)NC45CC(C#N)(C4)C5)c3)cnc2c(N)n1` [Example 382, 5-(8-Amino-6-methylimidazo[1,2-a]pyrazin-3-yl)-N-(3-cyanobicyclo[1.1.1]pentan-1-yl)-2-fluorobenzenesulfonamide trifluoroacetate salt], in that order: 100 to 500 nM and 500 to 2000 nM.
The like results for `Cc1ccc(S(=O)(=O)N(C)CCC#N)cc1-c1cnc2c(N)ncnn12` [Example 154, 3-(4-aminoimidazo[2,1-f][1,2,4]triazin-7-yl)-N-(2-cyanoethyl)-N,4-dimethylbenzenesulfonamide] were, in that order, under 100 nM and over 2000 nM.
For `Cc1ccc(S(=O)(=O)N2CCN(C3CC3)C(=O)C2)cc1-c1cnc2c(N)ncnn12` [Example 171, 4-((3-(4-aminoimidazo[2,1-f][1,2,4]triazin-7-yl)-4-methylphenyl)sulfonyl)-1-cyclopropylpiperazin-2-one], in that order: 100 to 500 nM and 500 to 2000 nM.
Regarding `Cc1ccc(S(C)(=O)=O)cc1-c1cnc2c(N)nc(C(=O)NC3CCCN(CC#N)C3)cn12` (stereo not drawn) [Example 459, 8-Amino-N-(1-(cyanomethyl)piperidin-3-yl)-3-(2-methyl-5-(methylsulfonyl)phenyl)imidazo[1,2-a]pyrazine-6-carboxamide trifluoroacetate salt], the values for the concentration for half-maximal inhibition (IC50) in experiment [1] (read-out: PI3Kγ IC50) and in experiment [2] were 100 to 500 nM and over 2000 nM, respectively.
For `Cc1ccc(S(=O)(=O)N2CC3C(O)C2CN3C(C)C)cc1-c1cnc2c(N)nc(C(F)(F)F)nn12` (stereo not drawn) [Example 350, 2-((3-(4-amino-2-(trifluoromethyl)imidazo[2,1-f][1,2,4]triazin-7-yl)-4-methylphenyl)sulfonyl)-5-isopropyl-2,5-diazabicyclo[2.2.1]heptan-7-ol], in that order: 100 to 500 nM and 500 to 2000 nM.
The like results for `Cc1ccc(S(=O)(=O)NCC2(C)COC2)cc1-c1cnc2c(N)cccn12` [Example 3, 3-(8-Aminoimidazo[1,2-a]pyridin-3-yl)-4-methyl-N-[(3-methyloxetan-3-yl)methyl]benzenesulfonamide trifluoroacetate] were, in that order, 100 to 500 nM and over 2000 nM.
For `Cc1ccc(S(=O)(=O)N2CCC(c3ccncc3)C2)cc1-c1cnc2c(N)ncnn12` (stereo not drawn) [Example 201, 7-(2-Methyl-5-((3-(pyridin-4-yl)pyrrolidin-1-yl)sulfonyl)phenyl)imidazo[2,1-f][1,2,4]triazin-4-amine], in that order: under 100 nM and 500 to 2000 nM.
As for `Cc1ccc(S(=O)(=O)N2CCN3CCCC3C2)cc1-c1cnc2c(N)ncnn12` (stereo not drawn) [Example 198, 7-(5-((Hexahydropyrrolo[1,2-a]pyrazin-2(1H)-yl)sulfonyl)-2-methylphenyl)imidazo[2,1-f][1,2,4]triazin-4-amine], the half-inhibitory concentration (IC50) in experiment [1] (read-out: PI3Kγ IC50) was 100 to 500 nM; in experiment [2], 500 to 2000 nM.
The like results for `Cc1ccc(S(C)(=O)=O)cc1-c1cnc2c(N)nc(-c3ccc(CN4CCCC4)cc3F)cn12` [Example 487, 6-(2-Fluoro-4-(pyrrolidin-1-ylmethyl)phenyl)-3-(2-methyl-5-(methylsulfonyl)phenyl)imidazo[1,2-a]pyrazin-8-amine] were, in that order, under 100 nM and 100 to 500 nM.
The like results for `Cc1ccc(S(=O)(=O)N2CCOC3CNCC32)cc1-c1cnc2c(N)nc(C(F)(F)F)cn12` (stereo not drawn) [Example 304, 3-(5-((hexahydropyrrolo[3,4-b][1,4]oxazin-4(4aH)-yl)sulfonyl)-2-methylphenyl)-6-(trifluoromethyl)imidazo[1,2-a]pyrazin-8-amine] were, in that order, under 100 nM and 500 to 2000 nM.
Take `COc1ccc(S(=O)(=O)NC23CCC(C#N)(C2)C3)cc1-c1cnc2c(N)ncnn12` [Example 372, 3-(4-Aminoimidazo[1,2-f][1,2,4]triazin-7-yl)-N-(4-cyanobicyclo[2.1.1]hexan-1-yl)-4-methoxybenzenesulfonamide trifluoroacetate salt]: the IC50 in experiment [1] (read-out: PI3Kγ IC50) was under 100 nM; in experiment [2], 500 to 2000 nM.
The like results for `Nc1nccn2c(-c3ccc(F)c(S(=O)(=O)N[C@H]4CC[C@H](O)CC4)c3)cnc12` [Example 45, 5-(8-Aminoimidazo[1,2-a]pyrazin-3-yl)-2-fluoro-N-(trans-4-hydroxycyclohexyl)benzenesulfonamide] were, in that order, under 100 nM and 500 to 2000 nM.
Take `Cc1ccc(S(=O)(=O)N(C)CC2(C)COC2)cc1-c1cnc2c(N)ncnn12` [Example 176, 3-(4-aminoimidazo[2,1-f][1,2,4]triazin-7-yl)-N,4-dimethyl-N-((3-methyloxetan-3-yl)methyl)benzenesulfonamide]: the figures for the IC50 in experiment [1] and in experiment [2] were 100 to 500 nM and over 2000 nM, respectively.
On to `Cc1ccc(S(C)(=O)=O)cc1-c1cnc2c(N)nc(-c3ccc(C(=O)N(C)C)cc3F)cn12` [Example 480, 4-(8-Amino-3-(2-methyl-5-(methylsulfonyl)phenyl)imidazo[1,2-a]pyrazin-6-yl)-3-fluoro-N,N-dimethylbenzamide], for which the IC50 is under 100 nM in experiment [1] (read-out: PI3Kγ IC50) and 100 to 500 nM in experiment [2].
For `Cc1cc(-c2cnc3c(N)nccn23)cc(S(=O)(=O)N[C@H]2CC[C@H](O)CC2)c1` [Example 44, 3-(8-Aminoimidazo[1,2-a]pyrazin-3-yl)-N-(trans-4-hydroxycyclohexyl)-5-methylbenzenesulfonamide], in that order: 500 to 2000 nM and over 2000 nM.
The like results for `Nc1ncnn2c(-c3cccc(S(=O)(=O)NC45CCC(CO)(C4)C5)c3)cnc12` [Example 368, 3-(4-Aminoimidazo[1,2-f][1,2,4]triazin-7-yl)-N-(4-(hydroxymethyl)bicyclo[2.1.1]hexan-1-yl)benzenesulfonamide trifluoroacetate salt] were, in that order, under 100 nM and 100 to 500 nM.
The like results for `Cc1ccc(S(=O)(=O)N2CCC[C@@H]2CO)cc1-c1cnc2c(N)ncnn12` [Example 152] were, in that order, under 100 nM and 500 to 2000 nM.
